Values of other authors as cited in patent publication US10645923B2, “Insect bait” (priority 2010, dated 2020).

Key:
Vespula spp. = conditions: treated areas
wasps [1] = conditions: beef baited with fipronil, North West Patagonia (Argentina)
wasps [2] = conditions: fipronil versus sulfluramid; faster acting
V. Germanica = conditions: hydramethylnon 2%, after 72 hours

Row | SMILES | reduction of colony activity (Vespula spp.) [%] | reduction of wasp densities (wasps [1]) | concentration factor lower than sulfluramid at equal toxicity (wasps [2]) [times] | reduction of wasp populations (V. Germanica) [%]
1 | N#Cc1nn(-c2c(Cl)cc(C(F)(F)F)cc2Cl)c(N)c1[S+]([O-])C(F)(F)F (stereo not shown) [Fipronil] | 99.7 | 80-100% | 1000 | 
2 | CC1(C)CNC(=NN=C(/C=C/c2ccc(C(F)(F)F)cc2)/C=C/c2ccc(C(F)(F)F)cc2)NC1 [hydramethylnon] |  |  |  | 54
